≈ marks a conversion by molar mass, not a printed value.
Experiments:
Type in all cases: cell-based
[1] = tested on: C. auris ATCC MYA5002; assay: MIC broth double-dilution assay with MTT (CLSI M27-A3); conditions: YPAD medium, 37° C., 24 h, growth score 0 or 1
Experimental: (§1) Minimal inhibitory concentration broth double-dilution assay: C. auris minimal inhibitory concentrations (MICs) were determined using CLSI M27-A3 guidelines with minor modifications. Starter cultures were streaked from glycerol stock onto YPAD agar plates and grown for 24 h at 37° C. Colonies were suspended in 1 mL PBS and diluted to 1×10^−3 optical density at 600 nm (OD600) and then diluted 1:100 into fresh medium. hybrids dissolved in DMSO were added to YPAD broth (32 μL stock solution in 1218 μL of YPAD broth), and serial double dilutions of hybrids in YPAD were prepared in flat-bottomed 96-well microplates (Corning) to enable testing of concentrations ranging from 64 μg/mL to 0.007 μg/mL. Control wells with yeast cells but no drug and blank wells containing only YPAD were prepared. An equal volume (100 μL) of yeast suspension in YPAD broth was added to each well with the exceptions of the blank wells. After incubation for 24 h at 37° C., MTT (50 μL of a 1 mg/mL solution in ddH2O) was added to each well followed by additional incubation at 37° C. for 2 h. MIC values (Table S3) were defined as the lowest concentration of an antifungal agent that caused a specified reduction in visible growth as per the CLSI M27-A3 protocol. The magnitude of reduction in visible growth was assessed using the following numerical scale: 0, optically clear; 1, slightly hazy; 2, prominent decrease (˜50%) in visible growth; 3, slight reduction in visible growth; and 4, no reduction in visible growth. The MIC was defined based on reduction in growth to 0 or 1. Results were confirmed in two independent experiments, and each concentration was tested in triplicate. FLC and VOR were used as control drugs.

[2] = tested on: C. auris ATCC MYA5001; assay: as above; conditions: YPAD medium, 37° C., 24 h, growth score 0 or 1
Experimental: as §1

[3] = tested on: C. albicans SC5314; assay: MIC80 broth double-dilution assay; conditions: YPAD medium, 30° C., 24 h
Experimental: (§2) The antifungal activities of the 24 azole-COX inhibitor hybrids were evaluated against a panel of 16 representative strains of different species of the genus Candida. Candida species cause both superficial and systemic infections. The panel included strains of C. albicans, C. glabrata, C. parapsilosis, C. tropicalis, C. guilliermondii, C. dubliniensis, and C. auris (Table S2). To evaluate antifungal activity, the minimal inhibitory concentration 80% (MIC80) values were determined, which were defined as the lowest drug concentrations with turbidity (measured at OD600) less than or equal to that of specific 1:5 dilutions of the growth control. As controls, FLC and VOR, were tested.
(§3) MIC80 values were determined using the broth microdilution method over a concentration range of 0.003-64 μg/mL. Orange circles represent C. albicans strains, yellow circles represent C. glabrata strains, and green circles represent C. parapsilosis, C. tropicalis, C. dubliniensis and C. auris. Cells were grown in YPAD medium at 30° C. (For C. auris strains 37° C.) 24 h. Each concentration was tested in triplicate, and results were confirmed in at least two independent experiments.
(§4) C. albicans, C. glabrata, C. parapsilosis, C. guilliermondii, C. tropicalis, and C. dubliniensis MICs were determined using CLSI M27-A3 guidelines with minor modifications. Starter cultures were streaked from glycerol stock onto YPAD agar plates and grown for 24 h at 30° C. Colonies were suspended in 1 mL PBS and diluted to 1×10^−3 OD600 and then diluted 1:100 into fresh medium. Hybrids dissolved in DMSO were added to YPAD broth (32 μL stock solution in 1218 μL of YPAD broth), and serial double dilutions of hybrids in YPAD were prepared in flat-bottomed 96-well microplates (Corning) to enable testing of concentrations ranging from 64 μg/mL to 0.003 μg/mL. Control wells with yeast cells but no drug and blank wells containing only YPAD were prepared. An equal volume (100 μL) of yeast suspensions in YPAD broth was added to each well with the exceptions of the blank wells. MIC values (Tables S4-S6) were determined after 24 h at 30° C. by measuring the OD600 using a plate reader (Infinite M200 PRO, Tecan). MIC values were defined as the point at which the OD600 was reduced by >80% compared to the no-drug wells. Each concentration was tested in triplicate, and results were confirmed by two independent sets of experiments. FLC and VOR were used as control drugs.

[4] = tested on: C. parapsilosis ATCC 22019; assay: MIC80 broth double-dilution assay; conditions: YPAD medium, 30° C., 24 h
Experimental: as §2, §3, §4

[5] = tested on: C. albicans ATCC 24433; assay: MIC80 broth double-dilution assay; conditions: YPAD medium, 30° C., 24 h
Experimental: as §2, §3, §4

[6] = tested on: C. albicans P-87; assay: MIC80 broth double-dilution assay; conditions: YPAD medium, 30° C., 24 h
Experimental: as §2, §3, §4

[7] = tested on: C. tropicalis 660; assay: MIC80 broth double-dilution assay; conditions: YPAD medium, 30° C., 24 h
Experimental: as §2, §3, §4

[8] = tested on: C. albicans ATCC 90028; assay: MIC80 broth double-dilution assay; conditions: YPAD medium, 30° C., 24 h
Experimental: as §2, §3, §4

[9] = tested on: C. dubliniensis T-99; assay: MIC80 broth double-dilution assay; conditions: YPAD medium, 30° C., 24 h
Experimental: as §2, §3, §4

[10] = tested on: C. albicans 742 (erg11ΔΔ/erg3ΔΔ mutant C. albicans strain); assay: MIC80 broth double-dilution assay, strain lacking CYP51; conditions: YPAD medium, 30° C., 24 h; erg11ΔΔ/erg3ΔΔ mutant lacking CYP51
Experimental: as §2
(§5) The clinically used FLC and VOR act primarily by preventing ergosterol biosynthesis via inhibition of CYP51. Analysis was done to determine whether fungal growth inhibition by the hybrids required the presence of the ERG11 gene that encodes for CYP51. The antifungal activities of hybrids 1 and 5 and of FLC and VOR were determined against an erg11ΔΔ/erg3ΔΔ mutant C. albicans strain and against C. albicans SN152 from which this double knockout strain was derived (Table S2). […] Yeast growth was followed at OD600 over 48 h in 96-well plates containing serial double dilutions of the tested hybrids.
as §4

[11] = tested on: C. albicans SN152; assay: MIC80 broth double-dilution assay; conditions: YPAD medium, 30° C., 24 h; parent strain of the erg11ΔΔ/erg3ΔΔ mutant
Experimental: as §2, §3, §5, §4

[12] = tested on: C. guilliermondii T-47; assay: MIC80 broth double-dilution assay; conditions: YPAD medium, 30° C., 24 h
Experimental: as §2, §4

| Compound | MIC against C. auris 5002 [1] | MIC against C. auris 5001 [2] | MIC80 against C. albicans SC5314 [3] | MIC80 against C. parapsilosis 22019 [4] | MIC80 against C. albicans 24433 [5] | MIC80 against C. albicans P-87 [6] | MIC80 against C. tropicalis 660 [7] | MIC80 against C. albicans 90028 [8] | MIC80 against C. dubliniensis T-99 [9] | MIC80 against C. albicans 742 [10] | MIC80 against C. albicans SN152 [11] | MIC80 against C. guilliermondii T-47 [12] |
| --- | --- | --- | --- | --- | --- | --- | --- | --- | --- | --- | --- | --- |
| COc1ccc2cc([C@@H](C)C(=O)NC[C@](O)(Cn3cncn3)c3ccc(F)cc3F)ccc2c1 [Hybrid 10] | 16 µg/mL (≈ 34.3 µM) | 0.5 µg/mL (≈ 1.07 µM) | 0.12 µg/mL (≈ 0.257 µM) | 1 µg/mL (≈ 2.14 µM) | 0.25 µg/mL (≈ 0.536 µM) | 0.25 µg/mL (≈ 0.536 µM) | 4 µg/mL (≈ 8.57 µM) | 0.12 µg/mL (≈ 0.257 µM) | 2 µg/mL (≈ 4.29 µM) | >64 µg/mL | 0.012 µg/mL (≈ 0.0257 µM) | 1 µg/mL (≈ 2.14 µM) |
| O=C(NC[C@](O)(Cn1cncn1)c1ccc(F)cc1F)c1cc(-c2ccc(F)cc2F)ccc1O [Hybrid 19] | 2 µg/mL (≈ 4.11 µM) | 0.12 µg/mL (≈ 0.247 µM) | 0.06 µg/mL (≈ 0.123 µM) | 0.06 µg/mL (≈ 0.123 µM) | 0.06 µg/mL (≈ 0.123 µM) | 0.03 µg/mL (≈ 0.0617 µM) | 0.12 µg/mL (≈ 0.247 µM) | 0.12 µg/mL (≈ 0.247 µM) | 2 µg/mL (≈ 4.11 µM) | 64 µg/mL (≈ 132 µM) | 0.03 µg/mL (≈ 0.0617 µM) | 2 µg/mL (≈ 4.11 µM) |
| O=C(Cc1ccccc1Nc1c(Cl)cccc1Cl)NC[C@](O)(Cn1cncn1)c1ccc(F)cc1F [Hybrid 23] | 64 µg/mL (≈ 120 µM) | 2 µg/mL (≈ 3.76 µM) | 1 µg/mL (≈ 1.88 µM) | 0.5 µg/mL (≈ 0.939 µM) | 1 µg/mL (≈ 1.88 µM) | 1 µg/mL (≈ 1.88 µM) | >64 µg/mL | 1 µg/mL (≈ 1.88 µM) | 4 µg/mL (≈ 7.51 µM) | >64 µg/mL | 1 µg/mL (≈ 1.88 µM) | 8 µg/mL (≈ 15 µM) |
| O=C(NC[C@](O)(Cn1cncn1)c1ccc(F)cc1F)c1ccccc1O [Hybrid 21] | 8 µg/mL (≈ 21.4 µM) | 0.25 µg/mL (≈ 0.668 µM) | 0.12 µg/mL (≈ 0.321 µM) | 1 µg/mL (≈ 2.67 µM) | 0.12 µg/mL (≈ 0.321 µM) | 0.12 µg/mL (≈ 0.321 µM) | 0.12 µg/mL (≈ 0.321 µM) | 0.25 µg/mL (≈ 0.668 µM) | 2 µg/mL (≈ 5.34 µM) | >64 µg/mL | 0.12 µg/mL (≈ 0.321 µM) | 1 µg/mL (≈ 2.67 µM) |
| COc1ccc2cc([C@H](C)C(=O)NC[C@](O)(Cn3cncn3)c3ccc(F)cc3F)ccc2c1 [Hybrid 9] | – | – | 0.25 µg/mL (≈ 0.536 µM) | 1 µg/mL (≈ 2.14 µM) | 0.5 µg/mL (≈ 1.07 µM) | 0.25 µg/mL (≈ 0.536 µM) | 2 µg/mL (≈ 4.29 µM) | 0.25 µg/mL (≈ 0.536 µM) | 4 µg/mL (≈ 8.57 µM) | 64 µg/mL (≈ 137 µM) | 0.012 µg/mL (≈ 0.0257 µM) | 2 µg/mL (≈ 4.29 µM) |
| C[C@@H](C(=O)NC[C@@](O)(Cn1cncn1)c1ccc(F)cc1F)c1cccc(C(=O)c2ccccc2)c1 [Hybrid 15] | – | – | >64 µg/mL | >64 µg/mL | >64 µg/mL | >64 µg/mL | >64 µg/mL | >64 µg/mL | 16 µg/mL (≈ 32.6 µM) | >64 µg/mL | >64 µg/mL | >64 µg/mL |
| COc1ccc2cc([C@@H](C)C(=O)NC[C@@](O)(Cn3cncn3)c3ccc(F)cc3F)ccc2c1 [Hybrid 11] | – | – | 0.5 µg/mL (≈ 1.07 µM) | 4 µg/mL (≈ 8.57 µM) | 1 µg/mL (≈ 2.14 µM) | 1 µg/mL (≈ 2.14 µM) | 8 µg/mL (≈ 17.1 µM) | 1 µg/mL (≈ 2.14 µM) | 8 µg/mL (≈ 17.1 µM) | >64 µg/mL | 0.5 µg/mL (≈ 1.07 µM) | 8 µg/mL (≈ 17.1 µM) |
| C[C@H](C(=O)NC[C@@](O)(Cn1cncn1)c1ccc(F)cc1F)c1ccc(-c2ccccc2)c(F)c1 [Hybrid 8] | – | – | 32 µg/mL (≈ 66.6 µM) | 64 µg/mL (≈ 133 µM) | >64 µg/mL | 64 µg/mL (≈ 133 µM) | >64 µg/mL | 64 µg/mL (≈ 133 µM) | 2 µg/mL (≈ 4.16 µM) | >64 µg/mL | 64 µg/mL (≈ 133 µM) | 64 µg/mL (≈ 133 µM) |

— patent US20250018048A1, “FLUCONAZOLE-COX INHIBITOR HYBRIDS: A DUAL-ACTING CLASS OF ANTIFUNGAL AZOLES” (Ramot at Tel-Aviv University Ltd., priority 2022, published 2025)
